Measured values from patent publication US4450269A, “Mono-5-substituted-3-chloro-4H-1,2,6-thiadiazin-4-one antifungal agents” (FMC Corporation, priority 1980, dated 1984).

Columns and labels:
[1] = tested on: Rhizoctonia solani; experiment: Mycelial growth test; assay type: cell-based; settings: RS; for inhibition at 5 ppm / inhibition at 10 ppm / inhibition at 20 ppm / inhibition at 40 ppm: Rhizoctonia solani, 72 h, read-out: Percent Fungus Growth Inhibition
Text: | RS = Rhizoctonia solani

[2] = tested on: Erysiphe polygoni; experiment: whole plant or invertebrate; settings: foliar, 24 h, read-out: Percent Disease Control, curative, bean powdery mildew

Row | SMILES | inhibition at 5 ppm [1] | inhibition at 10 ppm ([1]; 10 ppm) | inhibition at 20 ppm [1] | inhibition at 40 ppm [1] | pest or weed control at 150 ppm [2] | Percent Fungus Growth Inhibition ([1]; 10 ppm, 72 hours)
1 | CC(=O)c1cccc(Oc2nsnc(Cl)c2=O)c1 [Compound 48, 3-(3-acetylphenoxy)-5-chloro-4H--1,2,6-thiadiazin-4-one] | 64% | 24% | 64% | 76% | 0% | –
2 | CC(=O)c1ccccc1Oc1nsnc(Cl)c1=O [Compound 49, 3-(2-acetylphenoxy)-5-chloro-4H--1,2,6-thiadiazin-4-one] | 9% | 24% | 42% | 64% | 0% | –
3 | Cc1ccc(Oc2nsnc(Cl)c2=O)c(Br)c1 [Compound 57, 3-[(2-bromo-4-methyl)-phenoxy]-5-chloro-4H--1,2,6-thiadiazin-4-one] | 53% | 69% | 80% | 78% | 100% | –
4 | Nc1ccc(Oc2nsnc(Cl)c2=O)cc1 [Compound 26, 5-(4-aminophenoxy)-3-chloro-4H--1,2,6-thiadiazin-4-one] | 0% | – | 42% | 76% | 0% | 53%
5 | O=c1c(Cl)nsnc1Oc1c(Cl)c(Cl)c(Cl)c(Cl)c1Cl [Compound 31, 3-chloro-5-(pentachlorophenoxy)-4H--1,2,6-thiadiazine-4-one] | 53% | 69% | 73% | 76% | 100% | –
6 | O=c1c(Cl)nsnc1Oc1ccc(Br)cc1 [Compound 15, 3-chloro-5-(4-bromophenoxy)-4H--1,2,6-thiadiazin-4-one] | 13% | 38% | 38% | 53% | 100% | –
